Data set [1] relates to nonresistant strain of bed bug. As to conditions: for Residual Effect (% Knockdown & Mortality/hrs) 24: 24 hrs; for Residual Effect (% Knockdown & Mortality/hrs) 48: 48 hrs; for Residual Effect (% Knockdown & Mortality/hrs) 72: 72 hrs. The protocol: The compositions and individual components thereof were prepared to provide the appropriate rates of application for combinations of acetamiprid, chlorfenapyr, and rosemary oil, as well as acetamiprid, chlorfenapyr, and rosemary oil paired and alone. The insecticide formula(s) were aliquoted (100 μL) into a glass petri dish (100 mm). Filter paper was placed on top of the solution. Ten adult bed bugs were then placed on top of the filter paper and morbidity and moribundity (knockdown) and mortality was recorded at 5 minutes for each treatment combination and the control. After 2 hours, bed bugs were removed from the treated surface and placed in a holding chamber. Bed bug morbidity, moribund, and mortality was recorded every 24 hours for 7 days.
Dash indicates no knockdown or mortality during exposure.

Data set [2] relates to adult bed bugs resistant strain (UMC) colony. The data set can be described thus: Contact lethal time of pyrethroids and rosemary oil on treated filter paper, Example 4. The format is in vivo, bed bug. As to conditions: rate 0.01 % by weight. The protocol:
The control is 100 μL […]. Filter paper was then placed on top of the solution.

Read-outs that look alike come from different tables or passages of the source.

For `CC(=NC#N)N(C)Cc1ccc(Cl)nc1` [Acetamiprid, N-[(6-chloro-3-pyridyl)methyl]-N′-cyano-N-methyl-acetamidine], in data set [1] (rate 0.01 % by weight), the “2 hour exposure (min) LT50” value stood at 39.3 min, the “2 hour exposure (min) LT99” value is on record as 38038.1 min, the “Residual Effect (% Knockdown & Mortality/hrs) 24” value was determined as 10.0% and the “Residual Effect (% Knockdown & Mortality/hrs) 48” value is given as 20.0%. Besides, the “Residual Effect (% Knockdown & Mortality/hrs) 72” value in data set [1] (rate 0.01 % by weight) was 20.0%. In data set [1] (rate 0.1 % by weight), the “2 hour exposure (min) LT50” value is listed as 22.4 min, the “2 hour exposure (min) LT99” value is 12565.9 min, the “Residual Effect (% Knockdown & Mortality/hrs) 24” value is given as 20.0% and the “Residual Effect (% Knockdown & Mortality/hrs) 48” value is on record as 10.0%. In addition, in data set [1] (rate 0.1 % by weight), the “Residual Effect (% Knockdown & Mortality/hrs) 72” value worked out at 10.0%. Moreover, in data set [1] (rate 1.0 % by weight), the “2 hour exposure (min) LT50” value was 7.0 min, the “2 hour exposure (min) LT99” value amounted to 510.8 min, the “Residual Effect (% Knockdown & Mortality/hrs) 24” value was determined as 40.0% and the “Residual Effect (% Knockdown & Mortality/hrs) 48” value was found to be 30.0%. In data set [1] (rate 1.0 % by weight), the “Residual Effect (% Knockdown & Mortality/hrs) 72” value amounted to 50.0%.

Consider `CCOCn1c(-c2ccc(Cl)cc2)c(C#N)c(Br)c1C(F)(F)F` [Chlorfenapyr, 4-Bromo-2-(4-chlorophenyl)-1-ethoxymethyl-5-trifluoromethyl-1H-pyrrole-3-carbonitrile], for which the “Residual Effect (% Knockdown & Mortality/hrs) 24” value is 0.0% in data set [1] (rate 0.01 % by weight), 30.0% in data set [1] (rate 0.1 % by weight) and 40.0% in data set [1] (rate 1.0 % by weight). Besides, the “Residual Effect (% Knockdown & Mortality/hrs) 48” value in data set [1] (rate 0.01 % by weight) was 0.0%; in data set [1] (rate 0.1 % by weight) it was 50.0%; in data set [1] (rate 1.0 % by weight), 80.0%. For the same compound, the entries for the “Residual Effect (% Knockdown & Mortality/hrs) 72” value in data set [1] (rate 0.01 % by weight), in data set [1] (rate 0.1 % by weight) and in data set [1] (rate 1.0 % by weight) were 0.0%, 70.0% and 100.0%, respectively.

On to `CC1(C)C(C=C(Cl)Cl)C1C(=O)OCc1cccc(Oc2ccccc2)c1` (stereo not shown) [Permethrin, permethrin], for which, in data set [2], the “LT50” value is reported as 20.78 min and the “LT95” value worked out at 490.348 min.

In the case of `CC(C)=CC1C(C(=O)OCN2C(=O)C3=C(CCCC3)C2=O)C1(C)C` (stereo not shown) [Tetramethrin, tetramethrin], in data set [2], the “LT50” value amounted to 14000 min and the “LT95” value is 6.5e+06 min.
